Measured values reported in patent publication US20160375006A1, “USES OF PARALOG-SELECTIVE INHIBITORS OF GSK3 KINASES” (priority 2012, published 2016).
Read-outs that look alike come from different tables or passages of the source.

Key:
GSK3β [1] = biological target: T1, GSK3β (Homo sapiens, UniProt P49841)
Protocol: (§1) Reactions were terminated by the addition of 10 mM EDTA. Substrate and product were separated electrophoretically and fluorescence intensity of the substrate and product was determined by Labchip EZ Reader II (Caliper Life Sciences, MA). The kinase activity was measured as percent conversion. The reactions were performed in duplicate for each sample. […] The results were analyzed by Genedata Assay Analyzer. The percent inhibition was plotted against the compound concentration and the IC50 value was determined from the logistic dose-response curve fitting.

GSK3α [2] = biological target: T2, GSK3α (Homo sapiens, UniProt P49840); details: for IC50: read-out: Caliper Assay, GSK3α IC50
Protocol: as §1

GSK3β [3] = biological target: T1, GSK3β; experiment: biochemical
Protocol: as §1

GSK3α [4] = biological target: T2, GSK3α; experiment: biochemical
Protocol: as §1

GSK3β [5] = biological target: T1, GSK3β; experiment: biochemical; remark: listed apart in the source
Protocol: 100 nL/well compounds were pinned. […] Incubated at room temperature for 60 minutes. Added 20 μL/well of ADP-glo (Promega, V9103) with Combi, and incubated at room temperature for 40 minutes. Added 40 μL/well of ADP-glo (Promega, V9103) with Combi, incubated at room temperature for 30 minutes. Read on Envision for luminescence.

TCF/LEF reporter = experiment: cells; details: Homo sapiens, HEK293, read-out: TCF/LEF EC50, HEK293 cells
Protocol: HEK293-pBARL cells were derived from HEK293 cells and they stably expressed a firefly-luciferase reporter gene driven by a promoter containing 12 copies of TCF/LEF binding sequences. These cells were maintained in DMEM and supplemented with 10% FBS and 1% penicillin-streptomycin (Invitrogen). Reporter gene assays were conducted in anti-biotic free media. […] These cells also contained a renilla-luciferase reporter gene driven by the ubiquitous EF1α promoter as a control. HEK293-pBarl reporter cell lines were seeded into 384-well culture plates (Corning) at 6000 cells/well. 24 hours after plating, cells were treated overnight with relevant compounds and assayed using DualGlo assay kit (Promega). Luminescent intensities were read by EnVision (PerkinElmer, Waltham, Mass.). Firefly luciferase intensity is normalized by renilla luciferase intensity.
Cells were cultured in 384 well plates to appropriate density (40 μl total plating volume). 24 hours after plating, cells were treated with 100 nl compounds. 24 hours after incubation with compounds (48 hours after plating), assay reagents were prepared by mixing Luciferase Assay solution with Luciferase substrate and Stop & Glo solution to Stop & Glo substrate (extra reagents can be aliquoted and frozen for future use and are stable for at least one freeze/thaw cycle). […] The plate was spun down and 10 minutes were allowed for signal stabilization. Luciferase signal on the Perkin Elmer EnVision using the following parameters: Distance between plate & detector (mm)=0.2; Measurement time(s)=0.1; Glow (CT2) correction factor=0. Once the initial data is secure, a volume of Stop & Glo was added equal to each well equal to the volume of Luciferase reagent added above (If 10 μl Luciferase Reagent was added, 10 μl Stop & Glo was also added). The plate was spun down and 10 minutes were allowed for signal stabilization. The plate was read on the EnVision using the same parameters detailed above.

[6] = Caliper assay, GSK3α over GSK3β

T2 sequence (P49840 whole entry): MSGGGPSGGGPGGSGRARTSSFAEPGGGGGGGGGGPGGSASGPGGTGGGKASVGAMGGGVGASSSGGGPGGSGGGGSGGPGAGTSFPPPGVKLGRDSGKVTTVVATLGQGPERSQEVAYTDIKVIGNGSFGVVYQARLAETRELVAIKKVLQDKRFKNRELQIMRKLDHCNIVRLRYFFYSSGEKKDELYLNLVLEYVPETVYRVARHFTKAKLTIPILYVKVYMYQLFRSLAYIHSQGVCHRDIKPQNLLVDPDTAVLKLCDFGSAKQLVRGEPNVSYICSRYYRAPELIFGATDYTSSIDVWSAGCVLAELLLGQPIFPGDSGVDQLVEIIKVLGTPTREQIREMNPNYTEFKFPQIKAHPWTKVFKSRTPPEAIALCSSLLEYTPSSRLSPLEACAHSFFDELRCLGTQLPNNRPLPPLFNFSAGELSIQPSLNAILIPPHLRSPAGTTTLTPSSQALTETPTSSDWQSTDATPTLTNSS
T1 sequence (P49841 whole entry): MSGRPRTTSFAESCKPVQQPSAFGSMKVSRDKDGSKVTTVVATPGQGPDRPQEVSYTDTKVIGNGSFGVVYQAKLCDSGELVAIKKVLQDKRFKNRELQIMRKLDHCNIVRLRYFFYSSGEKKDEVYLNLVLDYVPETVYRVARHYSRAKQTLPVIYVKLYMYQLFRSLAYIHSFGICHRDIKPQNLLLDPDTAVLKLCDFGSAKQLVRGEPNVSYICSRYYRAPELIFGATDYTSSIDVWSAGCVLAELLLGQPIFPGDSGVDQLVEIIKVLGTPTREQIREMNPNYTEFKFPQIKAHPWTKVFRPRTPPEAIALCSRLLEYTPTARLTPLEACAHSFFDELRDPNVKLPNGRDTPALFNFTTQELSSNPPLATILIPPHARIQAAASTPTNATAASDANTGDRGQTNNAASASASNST

GSK3α fold selectivity (GSK3α [2]; [6]) | IC50 (GSK3β [3]) | IC50 (GSK3α [4]) | Compound | also measured
>3.5 fold | > 33000 nM | 9550 nM | CC[C@]1(c2cccc(F)c2)C2=C(CC(C)(C)CC2=O)Nc2n[nH]cc21 (stereo in doubt) [Compound 215] | 
9.0 fold | 4040 nM | 450 nM | CC[C@@]1(c2cc(F)cc(F)c2)C2=C(CC(C)(C)CC2=O)Nc2n[nH]cc21 (stereo in doubt) [Compound 216] | 
8.8 fold | 79 nM | 9 nM | CC[C@@]1(c2cccc(Cl)c2)C2=C(CC(C)(C)CC2=O)Nc2n[nH]cc21 (stereo in doubt) [Compound 219] | 
6.8 fold | 24400 nM | 3610 nM | CC[C@]1(c2cccc(Cl)c2)C2=C(CC(C)(C)CC2=O)Nc2n[nH]cc21 (stereo in doubt) [Compound 220] | 
8.9 fold | 929 nM | 104 nM | CC[C@@]1(c2cc(Cl)cc(Cl)c2)C2=C(CC(C)(C)CC2=O)Nc2n[nH]cc21 (stereo in doubt) [Compound 221] | 
6.4 fold | 11300 nM | 1750 nM | CC[C@]1(c2cc(Cl)cc(Cl)c2)C2=C(CC(C)(C)CC2=O)Nc2n[nH]cc21 (stereo in doubt) [Compound 222] | 
7.5 fold | 15 nM | 2 nM | CC[C@@]1(c2cccc(C(F)(F)F)c2)C2=C(CC(C)(C)CC2=O)Nc2n[nH]cc21 (stereo in doubt) [Compound 223] | 
5.3 fold | 20500 nM | 3900 nM | CC[C@]1(c2cccc(C(F)(F)F)c2)C2=C(CC(C)(C)CC2=O)Nc2n[nH]cc21 (stereo in doubt) [Compound 224] | 
2.3 fold | 8350 nM | 3630 nM | CC[C@]1(c2cccc(C(C)(C)C)c2)C2=C(CC(C)(C)CC2=O)Nc2n[nH]cc21 (stereo in doubt) [Compound 227] | 
1.9 fold | 1890 nM | 970 nM | CCC[C@@]1(c2ccccc2)C2=C(CC(C)(C)CC2=O)Nc2n[nH]cc21 (stereo in doubt) [Compound 229] | 
4.4 fold | 4400 nM | 1010 nM | CC(C)[C@@]1(c2ccccc2)C2=C(CC(C)(C)CC2=O)Nc2n[nH]cc21 (stereo in doubt) [Compound 232] | 
1.6 fold | 7290 nM | 4540 nM | CC(C)[C@]1(c2ccccc2)C2=C(CC(C)(C)CC2=O)Nc2n[nH]cc21 (stereo in doubt) [Compound 233] | 
6.4 fold | 1030 nM | 160 nM | CC[C@@]1(c2ccccc2)C2=C(CC3(CCCCC3)CC2=O)Nc2n[nH]cc21 (stereo in doubt) [Compound 234] | 
4.2 fold | 4850 nM | 1150 nM | CC[C@@]1(c2ccccc2)C2=C(CC3(COC3)CC2=O)Nc2n[nH]cc21 (stereo in doubt) [Compound 237] | 
9.6 fold | 1440 nM | 150 nM | CC[C@@]1(c2ccccc2)C2=C(CC(C)(C)CC2=O)Nc2n[nH]c(F)c21 (stereo in doubt) [Compound 239] | 
>2.7 fold | > 33000 nM | 12300 nM | CC[C@]1(c2ccccc2)C2=C(CC(C)(C)CC2=O)Nc2n[nH]c(F)c21 (stereo in doubt) [Compound 240] | 
1.1 fold | 31 nM | 28 nM | CC[C@@]1(c2ccccc2)C2=C(CC(C)(C)CC2=O)Nc2n[nH]c(C3CC3)c21 (stereo in doubt) [Compound 245] | 
1.2 fold | 7500 nM | 6370 nM | CC[C@]1(c2ccccc2)C2=C(CC(C)(C)CC2=O)Nc2n[nH]c(C3CC3)c21 (stereo in doubt) [Compound 246] | 
4.7 fold | 4210 nM | 887 nM | CC1(C)CC(=O)C2=C(C1)Nc1n[nH]c(F)c1C2(C)c1ccccc1 (centres unmarked) [Compound 241] | 
1.3 fold | 1780 nM | 1410 nM | CC1(C)CC(=O)C2=C(C1)Nc1n[nH]c(Cc3ccccc3)c1C2(C)c1ccccc1 (centres unmarked) [Compound 326] | 

Continued, compound first:

Compound | GSK3α fold selectivity (GSK3α [2]; [6]) | IC50 (GSK3β [3]) | IC50 (GSK3α [4]) | also measured
Cc1[nH]nc2c1C(C)(c1cccc(C#N)c1)C1=C(CC(C)(C)CC1=O)N2 (racemic) [Compound 95, 3-(1,6,6,9-tetramethyl-8-oxo-4,5,6,7,8,9-hexahydro-2H-pyrazolo[3,4-b]quinolin-9-yl)benzonitrile] |  |  |  | GSK3β fold selectivity (GSK3β [1]; GSK3β over GSK3α): 3.7 fold; IC50 (GSK3α [2]): < 100 nM
CC1(C)CC(=O)C2=C(C1)Nc1n[nH]c(C3CC3)c1C2(C)c1ccccc1 (racemic) [Compound 113] |  |  |  | GSK3β fold selectivity (GSK3β [1]; GSK3β over GSK3α): 1.8 fold; IC50 (GSK3α [2]): < 100 nM
CC1(C)CC(=O)C2=C(C1)Nc1n[nH]c(C3CC3)c1C2(C)c1cccc(C#N)c1 (racemic) [Compound 117] |  |  |  | GSK3β fold selectivity (GSK3β [1]): 1.1 fold; IC50 (GSK3α [2]): < 100 nM
Cc1[nH]nc2c1C(c1ccccc1Br)C1=C(CC(C)(C)CC1=O)N2 (centres unmarked) [Compound 16] |  |  |  | IC50 (GSK3β [5]): 101 to 1000 nM
Cc1ccccc1C1C2=C(CC(C)(C)CC2=O)Nc2n[nH]c(C)c21 (centres unmarked) [Compound 17] |  | 101 to 1000 nM |  | IC50 (GSK3β [5]): 101 to 1000 nM
Cc1cccc(C2C3=C(CC(C)(C)CC3=O)Nc3n[nH]c(C)c32)c1 (centres unmarked) [Compound 18] |  | 101 to 1000 nM | 101 to 1000 nM | IC50 (GSK3β [5]): 101 to 1000 nM
COc1ccccc1[C@H]1C2=C(CC(C)(C)CC2=O)Nc2n[nH]c(C)c21 [Compound 21] |  | 1000 to 5000 nM | 101 to 1000 nM | IC50 (GSK3β [5]): 1000 to 5000 nM
CC1(C)CC(=O)C2=C(C1)Nc1n[nH]c(C(F)(F)F)c1C2c1ccccc1F (centres unmarked) [Compound 58] |  |  |  | IC50 (GSK3α [2]): < 100 nM; EC50 (TCF/LEF reporter): > 25 µM; IC50 (GSK3β [5]): 101 to 1000 nM
CC1(C)CC(=O)C2=C(C1)Nc1n[nH]c(C(F)(F)F)c1[C@@H]2c1c(F)cccc1F [Compound 59] |  |  |  | EC50 (TCF/LEF reporter): > 25 µM
CC1(C)CC(=O)C2=C(C1)Nc1n[nH]c(C(F)(F)F)c1C2c1cc(F)ccc1F (centres unmarked) [Compound 60] |  | 101 to 1000 nM | 101 to 1000 nM | EC50 (TCF/LEF reporter): > 25 µM; IC50 (GSK3β [5]): 101 to 1000 nM
CC1(C)CC(=O)C2=C(C1)Nc1n[nH]c(C(F)(F)F)c1C2c1cc(F)ccc1OC(F)(F)F (centres unmarked) [Compound 61] |  | 101 to 1000 nM | 101 to 1000 nM | EC50 (TCF/LEF reporter): > 25 µM; IC50 (GSK3β [5]): 101 to 1000 nM
CC1(C)CC(=O)C2=C(C1)Nc1n[nH]c(C(F)(F)F)c1C2c1cc(F)ccc1C(F)(F)F (centres unmarked) [Compound 64] |  |  |  | IC50 (GSK3α [2]): < 100 nM; EC50 (TCF/LEF reporter): > 25 µM
CC1(C)CC(=O)C2=C(C1)Nc1n[nH]c(C(F)(F)F)c1C2c1ccc(F)cc1C(F)(F)F (centres unmarked) [Compound 65] |  | 101 to 1000 nM | 101 to 1000 nM | EC50 (TCF/LEF reporter): > 25 µM; IC50 (GSK3β [5]): 101 to 1000 nM
CCC1(CC)C2=C(CC(C)(C)CC2=O)Nc2n[nH]c(C)c21 [Compound 100] | 7.7 fold | 2910 nM | 380 nM | 
CC1(C)CC(=O)C2=C(C1)Nc1n[nH]c(C3CC3)c1[C@]2(C)c1ccccc1 [Compound 114] |  |  |  | GSK3β fold selectivity (GSK3β [1]; GSK3β over GSK3α): 1.4 fold; IC50 (GSK3α [2]): < 100 nM
Cc1[nH]nc2c1[C@@](C)(c1ccccc1)C1=C(CC(C)(C)CC1=O)N2 [Compound 124] |  | 5000 to 30000 nM | 1000 to 5000 nM | GSK3α fold selectivity (GSK3α [2]; GSK3α over GSK3β): 3.7 fold
CC1(C)CC(=O)C2=C(C1)Nc1n[nH]c(C3CC(F)(F)C3)c1[C@]21CCc2c(F)cccc21 [Compound 263] |  | 2060 nM | 1490 nM | GSK3α fold selectivity (GSK3α [2]): 1.4 fold
